According to US8673578B2, “Methods of identifying antagonists of the hTAS2R46 bitter taste receptor” (Deutsches Institut für Ernahrungsforschung Potsdam-Rehbrücke, priority 2009, dated 2014):

Tests used:
Assay in all cases: calcium imaging (FLIPR), activation of hTAS2R-transfected HEK293T-Gα16gust44 cells
hTAS2R46 = biological target: T1, hTAS2R46 (Homo sapiens, UniProt P59540); type: cell-based; details: 100 μM test substance, bath application
T1 construct: expressed in transfected cells; host or cells: HEK293T cells stably expressing chimeric Gα16gust44, transient transfection
T1 sequence (P59540 1-309): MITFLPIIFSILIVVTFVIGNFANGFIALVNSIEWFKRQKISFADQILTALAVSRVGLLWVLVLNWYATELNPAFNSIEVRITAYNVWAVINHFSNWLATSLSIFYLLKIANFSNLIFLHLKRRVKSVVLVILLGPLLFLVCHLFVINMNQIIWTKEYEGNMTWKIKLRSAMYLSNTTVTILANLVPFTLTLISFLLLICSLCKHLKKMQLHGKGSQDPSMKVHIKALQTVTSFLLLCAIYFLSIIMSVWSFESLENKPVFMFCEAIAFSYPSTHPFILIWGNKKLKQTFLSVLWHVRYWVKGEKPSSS
Source text: (§1) Human TAS2R cDNAs were cloned into pcDNA5/FRT (Invitrogen, San Diego, Calif.). For adequate plasma membrane targeting, receptor cDNA was fused to the aminoterminal sequence of the rat somatostatin type 3 receptor at the aminoterminus of the recombinant protein (Bufe, B., T. Hofmann, et al. (2002) Nat Genet. 32(3): 397-401). For immunological detection, the Herpes simplex Glycoprotein D epitope was supplemented at the carboxyterminus of the recombinant protein (Bufe et al., supra). Receptor constructs were transiently transfected into HEK293T cells stably expressing the chimeric G protein subunit Gα16gust44 (Ueda, T., S. Ugawa, et al. (2003) J Neurosci 23(19): 7376-80) using Lipofectamine 2000 (Invitrogen, San Diego, Calif.) in 96-well plates.
Calcium Imaging experiments were performed 24 h after transfection using a Fluorometric Imaging Plate Reader (FLIPR, Molecular Devices, Munich, Germany) as previously described (Bufe et al., supra). Taste active compounds were ordered from Sigma (Sigma-Aldrich, Taufkirchen, Germany). Absinthin, 3β hydroxy dihydro costunolide and 3β hydroxy pelenolide were kindly provided by Giovanni Appendino (Novara, Italy). Test substances were directly dissolved in C1 buffer (130 mM NaCl, 10 mM Na-Hepes, 10 mM Glucose, 5 mM KCl, 2 mM CaCl2, pH 7.4) or in DMSO, respectively. DMSO stocks were further diluted in C1 buffer not exceeding a final DMSO concentration of 1% on the cells. For the investigation of antagonistic effects, test substances were premixed. Agonists were applied at concentrations corresponding to EC90, except where indicated otherwise (Table 2). Data were collected from 3 independent experiments performed in quadruplicates and processed with SigmaPlot (SPSS, Chicago, Ill.). Fluorescence signals after application of test substances were corrected for and normalized to background fluorescence (ΔF/F═(F−F0)/F0), and baseline noise was subtracted. Calculation of dose-response curves was done by nonlinear regression using the function f(y)=((a−d)/(1+(x/EC50)^nH)+d). […]
Finally, the impact of chemical modifications on the antagonistic properties of 3β hydroxy dihydro costunolide on hTAS2R46-expressing cells was studied. Derivatives of 3β hydroxy dihydro costunolide with site-directed modifications at C3 and C11 were generated (FIG. 7A) These derivatives were tested for activation or inhibition of hTAS2R46-expressing cells in the absence or presence of the agonist strychnine (3 μM) and half-maximum effective concentrations (EC50) or half-maximal inhibitory concentrations were calculated (FIG. 7B).

hTAS2R38 = biological target: T2, hTAS2R38 (Homo sapiens, UniProt P59533); type: cell-based; details: 100 μM test substance, bath application; DMSO control
T2 construct: expressed in transfected cells; host or cells: HEK293T cells stably expressing chimeric Gα16gust44, transient transfection
T2 sequence (P59533 1-333): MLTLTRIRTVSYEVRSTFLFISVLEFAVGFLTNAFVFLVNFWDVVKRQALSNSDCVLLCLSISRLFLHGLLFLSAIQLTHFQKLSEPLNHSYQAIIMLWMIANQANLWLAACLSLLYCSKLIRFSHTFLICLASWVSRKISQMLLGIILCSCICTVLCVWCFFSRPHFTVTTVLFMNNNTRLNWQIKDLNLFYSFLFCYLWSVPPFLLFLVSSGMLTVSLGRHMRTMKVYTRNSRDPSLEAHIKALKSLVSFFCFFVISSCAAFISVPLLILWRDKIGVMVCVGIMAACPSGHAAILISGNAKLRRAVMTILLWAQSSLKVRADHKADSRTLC
Source text: as §1
(§2) Calcium Imaging experiments were performed 24 h after transfection using a Fluorometric Imaging Plate Reader (FLIPR, Molecular Devices, Munich, Germany) as previously described (Bufe et al., supra). Taste active compounds were ordered from Sigma (Sigma-Aldrich, Taufkirchen, Germany). Absinthin, 3β hydroxy dihydro costunolide and 3β hydroxy pelenolide were kindly provided by Giovanni Appendino (Novara, Italy). Test substances were directly dissolved in C1 buffer (130 mM NaCl, 10 mM Na-Hepes, 10 mM Glucose, 5 mM KCl, 2 mM CaCl2, pH 7.4) or in DMSO, respectively. DMSO stocks were further diluted in C1 buffer not exceeding a final DMSO concentration of 1% on the cells. For the investigation of antagonistic effects, test substances were premixed. Agonists were applied at concentrations corresponding to EC90, except where indicated otherwise (Table 2). Data were collected from 3 independent experiments performed in quadruplicates and processed with SigmaPlot (SPSS, Chicago, Ill.). Fluorescence signals after application of test substances were corrected for and normalized to background fluorescence (ΔF/F═(F−F0)/F0), and baseline noise was subtracted. Calculation of dose-response curves was done by nonlinear regression using the function f(y)=((a−d)/(1+(x/EC50)^nH)+d).
(§3) In a first series of experiments we tested the two sesquiterpene lactones 3β hydroxy dihydro costunolide (formula (I) in FIG. 1) and 3β hydroxy pelenolide (formula (II) in FIG. 1) for their ability to activate hTAS2 receptor-expressing HEK293T cells.
(§4) Signal amplitudes were comparatively small (FIG. 2C).

hTAS2R44 = biological target: T3, hTAS2R44 (Homo sapiens, UniProt P59538, L162M); type: cell-based
T3 construct: expressed in transfected cells; host or cells: HEK293T cells stably expressing chimeric Gα16gust44, transient transfection
T3 sequence (P59538 1-309 L162M): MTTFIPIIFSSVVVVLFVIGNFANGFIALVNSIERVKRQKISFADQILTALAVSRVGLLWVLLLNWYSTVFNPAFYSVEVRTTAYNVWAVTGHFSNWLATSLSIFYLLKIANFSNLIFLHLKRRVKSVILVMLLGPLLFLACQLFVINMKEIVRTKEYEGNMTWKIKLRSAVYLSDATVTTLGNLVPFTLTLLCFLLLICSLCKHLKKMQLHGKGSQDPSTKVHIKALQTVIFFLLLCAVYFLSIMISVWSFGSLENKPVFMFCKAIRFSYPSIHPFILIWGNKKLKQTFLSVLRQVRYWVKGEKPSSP
Source text: as §1, §2, §3, §4

other hTAS2 receptors = type: cell-based, human; details: 100 μM test substance, bath application
Source text: as §1
Calcium Imaging experiments were performed 24 h after transfection using a Fluorometric Imaging Plate Reader (FLIPR, Molecular Devices, Munich, Germany) as previously described (Bufe et al., supra). Taste active compounds were ordered from Sigma (Sigma-Aldrich, Taufkirchen, Germany). Absinthin, 3β hydroxy dihydro costunolide and 3β hydroxy pelenolide were kindly provided by Giovanni Appendino (Novara, Italy). […] Fluorescence signals after application of test substances were corrected for and normalized to background fluorescence (ΔF/F═(F−F0)/F0), and baseline noise was subtracted. […]

| SMILES | calcium response of hTAS2R46-transfected cells (hTAS2R46) | calcium response of hTAS2R38-transfected cells (hTAS2R38) | calcium response of hTAS2R44-transfected cells (hTAS2R44; 100 μM test substance, bath application) | EC50 (hTAS2R44; concentration-response, intracellular calcium) [µM] | calcium response of cells expressing any of the other TAS2Rs (other hTAS2 receptors) |
| --- | --- | --- | --- | --- | --- |
| C/C1=C\C[C@H](O)[C@@H](C)C[C@H]2OC(=O)[C@@H](C)[C@@H]2CC1 [3β hydroxy pelenolide] | displayed calcium signals |  |  |  |  |
| C/C1=C\C[C@H](O)/C(C)=C/[C@H]2OC(=O)[C@@H](C)C2CC1 (stereo partly drawn) [3β hydroxy dihydro costunolide] |  | generated by DMSO used as solvent | responded | 31.5 ± 7.4 | did not respond |
